Legend:
NF-κB = NF-κB SEAP reporter gene assay in INS-1E cells; type: cell-based, rat; settings: printed "at 504" (FIG. 2B: 5 μM); cytokine cocktail 10 ng/mL TNFα, 5 ng/mL IL-1β, 10 ng/mL IFN-γ; 24 hours
Description: Briefly, a plasmid construct containing NF-kB promoter and SEAP gene was transferred into INS-1E cells by lipofectamine. SEAP was then expressed and secreted into culture supernatant and allowed […] detection using a substrate PNPP under 405 nm. […] NF-kB activity was measured 24 hours after addition of cytokine cocktail (10 ng/mL TNFα, 5 ng/mL IL-1β and 10 ng/mL IFN-γ) alone or with JP-3-110 (5 μM) or TNP (5 μM) or MPA (5 μM). Blank, no cytokine stimulation. Cyt, cytokine cocktail. Results are presented as the mean±S.D., n=3.
INS-1E cells which were stably transfected with the SEAP gene containing the response-element for NF-κB were used to screen for anti-inflammatory activity. Briefly, 10^6 cells/well were seeded overnight followed by treatment with 10 ng/mL human recombinant TNFα and either TNP or hybrid drug JP-3-110 (1 μM). SEAP activity was measured 18 h later in supernatant samples (50 µL) using the NF-κB SEAPorter™ Assay Kit (IMGENEX, San Diego, Calif.) and a microplate luminometer. SEAP activity was normalized to the total protein content.

human CD3+ T cells = experiment: Mixed lymphocyte reaction: proliferation of PHA-stimulated T cells; type: cell-based; settings: data not shown; TNP 5 μM
Description: Briefly, human peripheral blood mononuclear cells PBMCs were isolated from human buffy coat using Ficoll-Paque. […] Results are presented as the mean±S.D., n=6.
PBMCs were isolated using Ficoll Paque. T cells were isolated from PBMCs using Dynabeads for. T cells were stimulated with PHA (1 μg/ml) for 24 h alone or in the presence of TNP (5 μM) or JP-3-110 (5 μM) for additional 4 days. The total number of PBMCs was measured using T4 Automatic Cell Counter (Nexcelom, Lawrence, Mass.). The extent of T cell activation was determined by measuring the level of IL-2, IL-2sRa, TNFα and IFN-γ in the medium using ELISA at indicated time.
Mixed lymphocytes reaction was used to determine the immunosuppressive effects of MPA and JP-3-110. T cells were purified using dynabeads from peripheral blood mononuclear cells (PBMCs), which were initially isolated from human buffy coat (FIG. 8A). […] The levels of IL-2, IL-2sRa, TNFα and IFNγ were detected by ELISA to study the effects of JP-3-110 and MPA on T cell activation.

(1S,3R,4S,5R)—N-butyl-1,3,4,5-tetrahydroxycyclohexane-1-carboxamide [TNP, reference compound]
NF-κB activities in INS-1E cells (NF-κB): significantly reduced
immunosuppressive effect in mixed lymphocytes reaction (human CD3+ T cells): did not observe any immunosuppressive effect
